# System: human embryonic stem cells
# Assay: Metabolite profiling (LC/ESI-TOF mass spectrometry) of extracellular media of hESCs treated with alcohol
# Assay type: cell-based
# Conditions: ETOH 0.1; 4 D
# Source text: Binned masses were annotated in silico by querying the neutral masses in several different databases. These databases included Metlin, Biological Magnetic Resonance Data Bank (BMRB), NIST Chemistry WebBook, and the Human Metabolome Database. A mass was considered identified when its neutral mass was within 10 ppm of a known compound annotated in one of the databases listed above.
smiles,measurement,value
CCO [ETOH],"Fold: 2-Oxo-4-methylthiobutanoic acid, mass 148.016, RT 52.88652",−2.444 fold
same,"Fold: 3-(2,5-Dimethoxy phenylpropionic acid, mass 210.0922, RT 36.18938)",1.864 fold
same,"Fold: (+)-Eudesmin, mass 386.1724, RT 51.65871",5.309 fold
same,"Fold: (+/−)-2-(4′-Isobutylphenyl)propionitrile, mass 187.1348, RT 46.31086",2.329 fold
same,"Fold: Acetylcarnitine / L-Glutamic acid n-butyl ester, mass 203.1138, RT 9.675726",−1.707 fold
same,"Fold: Benzenemethanol, 2-(2-aminopropoxy)-3-methyl- / a-[1-(ethylamino)ethyl]-p-hydroxy-Benzyl alcohol, mass 195.124, RT 31.19917",−2.225 fold
same,"Fold: Benzenemethanol, 2-(2-aminopropoxy)-3-methyl- / a-[1-(ethylamino)ethyl]-p-hydroxy-Benzyl alcohol, mass 195.1253, RT 38.99212",2.159 fold
same,"Fold: Homogentisic acid / Vanillic acid, mass 168.0434, RT 19.18355",−1.468 fold
same,"Fold: L-Oleandrosyl-oleandolide, mass 530.314, RT 23.87065",1.965 fold
same,"Fold: L-Urobilinogen;, mass 596.3543, RT 25.14927",1.396 fold
same,"Fold: N-Methyl-2-pyrrolidinone, mass 99.0689, RT 15.48433",1.434 fold
same,"Fold: Neu5Acalpha2-3Galbeta1-4Glcbeta-Sp / Neu5Acalpha2-6Galbeta1-4Glcbeta-Sp, mass 702.2497, RT 40.84822",−2.769 fold
same,"Fold: Pantothenol / dimethylbutanamide;, mass 205.1304, RT 6.747279",−1.2578 fold
same,"Fold: Phenanthrene-9,10-oxide, mass 194.073, RT 5.935143",−1.389 fold
same,"Fold: Unknown, mass 99.1043, RT 52.01225",2.703 fold
same,"Fold: Unknown, mass 120.2112, RT 13.40565",4.847 fold
same,"Fold: Unknown, mass 131.076, RT 14.35336",3.629 fold
same,"Fold: Unknown, mass 197.1769, RT 48.37093",−3.119 fold
same,"Fold: Unknown, mass 243.1089, RT 17.7027",−2.181 fold
same,"Fold: Unknown, mass 268.2487, RT 42.3656",−1.55 fold
same,"Fold: Unknown, mass 272.16, RT 43.99398",2.187 fold
same,"Fold: Unknown, mass 292.1862, RT 37.97297",2.239 fold
same,"Fold: Unknown, mass 293.9773, RT 4.014175",1.939 fold
same,"Fold: Unknown, mass 295.1521, RT 8.967061",1.513 fold
same,"Fold: Unknown, mass 298.174, RT 50.75387",−3.002 fold
same,"Fold: Unknown, mass 300.1147, RT 18.88505",2.686 fold
same,"Fold: Unknown, mass 301.1345, RT 7.719471",6.649 fold
same,"Fold: Unknown, mass 312.1341, RT 15.22357",−2.015 fold
same,"Fold: Unknown, mass 315.6732, RT 26.51229",2.015 fold
same,"Fold: Unknown, mass 325.2711, RT 18.82373",−1.756 fold
same,"Fold: Unknown, mass 325.2714, RT 20.94557",−2.074 fold
same,"Fold: Unknown, mass 353.2765, RT 3.85935",2.622 fold
same,"Fold: Unknown, mass 357.1781, RT 25.16993",2.217 fold
same,"Fold: Unknown, mass 359.1532, RT 24.01428",1.536 fold
same,"Fold: Unknown, mass 360.1321, RT 18.50245",2.11 fold
same,"Fold: Unknown, mass 362.2787, RT 83.72506",2.916 fold
same,"Fold: Unknown, mass 368.2122, RT 27.98054",1.695 fold
same,"Fold: Unknown, mass 379.1771, RT 20.76168",1.54 fold
same,"Fold: Unknown, mass 383.1721, RT 15.20829",1.915 fold
same,"Fold: Unknown, mass 384.2127, RT 23.38956",−2.556 fold
same,"Fold: Unknown, mass 387.0812, RT 19.97914",−1.977 fold
same,"Fold: Unknown, mass 388.2349, RT 46.346",1.947 fold
same,"Fold: Unknown, mass 403.1978, RT 51.66325",3.116 fold
same,"Fold: Unknown, mass 405.2001, RT 30.70733",2.668 fold
same,"Fold: Unknown, mass 408.1636, RT 16.21743",1.966 fold
same,"Fold: Unknown, mass 417.2338, RT 33.09057",2.033 fold
same,"Fold: Unknown, mass 417.2386, RT 21.14975",−1.98 fold
same,"Fold: Unknown, mass 420.1862, RT 26.77212",3.283 fold
same,"Fold: Unknown, mass 429.2533, RT 18.03482",−1.808 fold
same,"Fold: Unknown, mass 429.2535, RT 30.24237",1.805 fold
same,"Fold: Unknown, mass 431.2501, RT 35.58196",1.532 fold
same,"Fold: Unknown, mass 440.0223, RT 4.808947",−1.528 fold
same,"Fold: Unknown, mass 443.2381, RT 24.13915",2.986 fold
same,"Fold: Unknown, mass 443.3216, RT 67.0705",1.752 fold
same,"Fold: Unknown, mass 444.2237, RT 51.58546",2.131 fold
same,"Fold: Unknown, mass 460.9391, RT 33.51823",−4.518 fold
same,"Fold: Unknown, mass 467.3804, RT 46.51446",2.068 fold
same,"Fold: Unknown, mass 468.2002, RT 51.6158",1.875 fold
same,"Fold: Unknown, mass 471.7804, RT 30.72707",−2.836 fold
same,"Fold: Unknown, mass 478.2761, RT 30.28867",1.699 fold
same,"Fold: Unknown, mass 487.3472, RT 66.73744",2.931 fold
same,"Fold: Unknown, mass 489.2127, RT 21.72729",−1.51 fold
same,"Fold: Unknown, mass 510.8202, RT 31.22083",2.488 fold
same,"Fold: Unknown, mass 525.3161, RT 34.57864",1.551 fold
same,"Fold: Unknown, mass 526.2773, RT 51.73057",3.446 fold
same,"Fold: Unknown, mass 531.2876, RT 32.50661",2.106 fold
same,"Fold: Unknown, mass 531.3191, RT 35.58454",−1.252 fold
same,"Fold: Unknown, mass 531.3736, RT 66.31491",3.863 fold
same,"Fold: Unknown, mass 541.3274, RT 32.24719",2.162 fold
same,"Fold: Unknown, mass 545.3029, RT 17.6573",−1.395 fold
same,"Fold: Unknown, mass 554.8471, RT 31.891",2.038 fold
same,"Fold: Unknown, mass 555.2406, RT 15.78741",1.835 fold
same,"Fold: Unknown, mass 555.8505, RT 5.742094",−1.289 fold
same,"Fold: Unknown, mass 556.3971, RT 88.02533",−3.118 fold
same,"Fold: Unknown, mass 559.8329, RT 31.97996",−1.7213 fold
same,"Fold: Unknown, mass 574.3397, RT 24.7039",1.584 fold
same,"Fold: Unknown, mass 574.3427, RT 31.71105",1.75 fold
same,"Fold: Unknown, mass 576.096, RT 47.90467",1.361 fold
same,"Fold: Unknown, mass 589.6938, RT 35.26918",1.82 fold
same,"Fold: Unknown, mass 591.3789, RT 31.54325",1.578 fold
same,"Fold: Unknown, mass 603.3535, RT 32.67372",−2.63 fold
same,"Fold: Unknown, mass 619.3409, RT 33.68866",1.857 fold
same,"Fold: Unknown, mass 620.8861, RT 32.73907",2.249 fold
same,"Fold: Unknown, mass 635.4065, RT 32.08734",1.393 fold

# — patent publication US8703483B2, “Reagents and methods for using human embryonic stem cells to evaluate toxicity of pharmaceutical compounds and other chemicals” (Wisconsin Alumni Research Foundation, priority 2006, dated 2014)
